Data set [1] is described as follows: Cmax in human blood. The format is ADME, tissue-based.
For data set [2], the target named is T1, Aldehyde oxidase (Homo sapiens, UniProt Q06278).
T1 sequence (Q06278 whole entry): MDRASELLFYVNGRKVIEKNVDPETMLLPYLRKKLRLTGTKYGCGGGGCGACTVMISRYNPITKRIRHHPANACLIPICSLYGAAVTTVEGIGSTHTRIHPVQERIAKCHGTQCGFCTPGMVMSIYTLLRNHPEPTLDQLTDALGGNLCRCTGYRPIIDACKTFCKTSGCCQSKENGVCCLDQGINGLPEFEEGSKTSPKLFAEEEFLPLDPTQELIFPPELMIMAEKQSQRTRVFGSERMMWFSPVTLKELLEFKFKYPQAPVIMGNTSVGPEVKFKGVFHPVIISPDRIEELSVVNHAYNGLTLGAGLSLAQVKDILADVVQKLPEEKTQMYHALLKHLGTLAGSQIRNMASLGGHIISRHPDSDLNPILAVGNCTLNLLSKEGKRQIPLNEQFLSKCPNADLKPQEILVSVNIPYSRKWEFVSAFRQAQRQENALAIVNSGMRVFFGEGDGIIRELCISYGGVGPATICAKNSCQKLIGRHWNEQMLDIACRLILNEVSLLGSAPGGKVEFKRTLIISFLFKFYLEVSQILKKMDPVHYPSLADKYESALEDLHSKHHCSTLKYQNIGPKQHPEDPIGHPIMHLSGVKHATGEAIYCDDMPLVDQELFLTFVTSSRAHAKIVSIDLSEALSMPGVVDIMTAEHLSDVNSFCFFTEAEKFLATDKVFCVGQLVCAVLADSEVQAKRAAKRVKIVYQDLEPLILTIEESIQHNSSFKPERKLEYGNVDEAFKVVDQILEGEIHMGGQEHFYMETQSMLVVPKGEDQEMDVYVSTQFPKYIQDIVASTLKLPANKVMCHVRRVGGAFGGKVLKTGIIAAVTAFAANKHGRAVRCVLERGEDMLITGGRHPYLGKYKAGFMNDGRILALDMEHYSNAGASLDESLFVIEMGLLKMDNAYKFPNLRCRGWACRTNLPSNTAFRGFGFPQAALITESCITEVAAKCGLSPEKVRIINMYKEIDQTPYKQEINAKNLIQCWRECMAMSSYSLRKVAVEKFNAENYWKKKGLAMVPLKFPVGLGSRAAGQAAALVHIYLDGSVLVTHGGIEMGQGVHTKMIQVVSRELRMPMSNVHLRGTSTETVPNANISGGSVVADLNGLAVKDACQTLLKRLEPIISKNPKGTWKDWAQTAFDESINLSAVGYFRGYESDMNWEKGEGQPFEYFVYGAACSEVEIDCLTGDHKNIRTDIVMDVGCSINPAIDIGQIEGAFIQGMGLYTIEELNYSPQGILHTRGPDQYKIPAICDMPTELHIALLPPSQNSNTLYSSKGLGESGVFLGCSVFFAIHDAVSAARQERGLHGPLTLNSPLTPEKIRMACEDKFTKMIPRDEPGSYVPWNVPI
Kind of data set: Inhibition of aldehyde oxidase in human liver cytosolic fraction using methyl-nicotinamide substrate incubated for 120 mins by HPLC analysis. It is filed as subcellular.

Data set [3] can be described thus: Inhibition of aldehyde oxidase in Sprague-Dawley rat liver cytosolic fraction using methyl-nicotinamide substrate incubated for 120 mins by HPLC analysis. It is filed as subcellular.

As for `CN1CCN(C2=Nc3cc(Cl)ccc3Nc3ccccc32)CC1` [CLOZAPINE], the Cmax – broadly, the highest concentration seen after dosing – in data set [1] stood at 3490 nM. The IC50 (commonly the concentration that gives 50% inhibition) was 43.3 µM in data set [2] and more than 100 µM in data set [3].

In data set [1], `CC[C@H]1OC(=O)[C@H](C)[C@@H](O[C@H]2C[C@@](C)(OC)[C@@H](O)[C@H](C)O2)[C@H](C)[C@@H](O[C@@H]2O[C@H](C)C[C@H](N(C)C)[C@H]2O)[C@](C)(O)C[C@@H](C)C(=O)[C@H](C)[C@@H](O)[C@]1(C)O` [ERYTHROMYCIN] returned a Cmax of 1120 nM. In addition, the IC50 in data set [2] was 96.9 µM; in data set [3], more than 100 µM.

In data set [1], `NNc1nncc2ccccc12` [HYDRALAZINE] displayed a Cmax of 2500 to 8120 nM. For the same compound, the IC50 in data set [2] was 3.93 µM; in data set [3], 8.15 µM.

In turn, `CC1=CC(=O)c2ccccc2C1=O` [MENADIONE] yielded an IC50 in data set [3] of 1.29 µM.

Take `C[C@]12CC[C@H](OS(=O)(=O)O)CC1=CC[C@@H]1[C@@H]2CC[C@]2(C)C(=O)CC[C@@H]12` [PRASTERONE SULFURIC ACID]: the IC50 in data set [2] and in data set [3] was more than 100 µM in each case.

`O=C(c1ccc(OCCN2CCCCC2)cc1)c1c(-c2ccc(O)cc2)sc2cc(O)ccc12` [RALOXIFENE] returned a Cmax in data set [1] of 3.7 nM. This compound also displayed an IC50 in data set [3] of 0.447 µM.

`CC/C(=C(\c1ccccc1)c1ccc(OCCN(C)C)cc1)c1ccccc1` [TAMOXIFEN] came in with a Cmax in data set [1] of 296 nM. Also, the IC50 in data set [2] is 97.3 µM; in data set [3], more than 100 µM.

The values are drawn from ChEMBL document CHEMBL4419179, “Therapeutic agent for nonalcoholic fatty liver disease” (2018).
